pIC50: −log10 of the molar value. Where a name gives a salt, the structure may show the parent alone.
How the values were obtained:
αvβ3 [1] = target: T1, αvβ3 (Homo sapiens, UniProt P05106+P06756); assay: Solid-phase assay: biotinylated-fibrinogen binding to immobilized αvβ3; parameters: placental αvβ3; from tissue; host or cells: placenta; details: for pIC50: Solid Phase Assay, biotinylated-fibrinogen 10 nM, 2 hours at 37° C; for Selectivity: αIIbβ3 vs αvβ3 solid phase IC50
Experimental: (§1) Assay 1. Fibrinogen Binding to Immobilized αIIbβ3 and αvβ3 (Solid-Phase Assays) The wells of plastic microtiter plates were coated overnight at 4° C. with purified active αIIbβ3 (Calbiochem) or placental αvβ3 at 0.5 ug/mL (100 uL/well) in a buffer containing 150 mM NaCl, 20 mM Tris, pH 7.4, 1 mM MgCl2, 0.2 mM MnCl2, and including 1 mM CaCl2 for αIIbβ3 Blocking of nonspecific sites was achieved by incubating the wells with 35 mg/mL bovine serum albumin (BSA) for at least 2 hours at 37° C. Biotinylated-fibrinogen (10 nM) was added in 0.2 mL binding buffer (100 mM NaCl, 50 mM Tris, pH 7.4, 1 mM MgCl2, 0.2 mM MnCl2 and 1 mg/mL BSA including 1 mM CaCl2 for αIIbβ3) to the wells in triplicate in the absence or presence of increasing concentrations of compounds of interest (0.001-100 uM) and further incubated for 2 hours at 37° C. Nonbound fibrinogen was removed by five washes with binding buffer. Avidin conjugated to alkaline phosphatase (Sigma), diluted in binding buffer, was added and incubated for two hours at 37° C. The plates were washed five times with binding buffer, and after addition of the substrate PNPP (Pierce), the enzyme activity was measured by the absorbance at 405 nm. The concentration of inhibitor required to inhibit 50% of biotinylated-fibrinogen binding was defined as IC50 determined by a nonlinear, sigmoidal dose response variable slope from the GraphPad Prism software.

αvβ3 [2] = target: T1, αvβ3; assay: Cell attachment assay, αvβ3; format: cell-based; details: 1 hour at 37° C
Experimental: (§2) The wells of 96-well plates (Immunolon) were coated, by incubation overnight at 4° C., with 5 ug/mL vitronectin, 2 ug/mL osteopontin, or fibronectin or 10 mg/mL BSA in PBS. The protein solution was flicked out and the wells were blocked with 10 mg/mL BSA (0.1 mL) for 1-2 hours at 37° C. Cells HT29, K562, or K562 transfected with αvβ3 (Blystone et al., 1994) were loaded with a fluorescent marker, 5-chloromethylfluorescein diacetate (Molecular Probes, Eugene, OR) for 1 hour at 37° C., then incubated in fresh medium without the fluorescent marker for 1 hour. Cells were lifted with trypsin-EDTA and washed two times with Hank's balanced salt solution minus cations (Sigma) supplemented with 1 mM MgCl2 Cells (75,000 cells/well) were added to coated plates in triplicate and allowed to attach at 37° C. for 1 hour in the presence or absence of specific antibodies (5 ug/mL) or 10-fold dilutions of compounds of interest starting at 10 uM. Nonadherent cells were removed by gentle washing twice with PBS. The adherent cells were solubilized with 1% triton x-100 and detected using a fluorescence plate reader (DYNEX Technologies). The number of attached cells was calculated based upon standard curves for each cell line used in the experiment. Non-specific cell attachment (attachment to wells coated with BSA) was always less than 5%.

HT29 = assay: Cytotoxicity (MTT), HT29; format: cell-based; details: Homo sapiens, HT-29, 72 hours, 2500 cells/well
Experimental: (§3) Assay 3. Cytotoxicity (MTT)
(§4) The wells of microtiter plates were seeded with 2000 cells/well T24, 2500 cells/well HT29 or 5000 cells/well HMVEC (Cell Systems) in 100 uL, followed by an overnight culture for cell adhesion. The next day, the media is supplemented with 100 uL of 10-fold dilution of compound of interest starting at 10 uM. Following culture for 72 hours, 3-(4, 5-dimethyl-2-thiazolyl)-2, 5-diphenyltetrazolium bromide (MTT; Sigma) at 2 mg/mL was added to each well (50 uL/well) and further incubated for 4 hours at 37° C. The medium was flicked out and 200 uL of a 1:1 solution of ethanol:acetone followed by 25 uL of glycine buffer (0.1 M glycine, 0.1M NaCl, pH 10.5) is added and the color measured by the absorbance at 570 nm.

B16F10 = assay: Cytotoxicity (MTT), B16F10; format: cell-based; details: Mus musculus, B16-F10, 72 hours
Experimental: [The source words this procedure for another cell line and reports this cell line under the same test.] as §3, §4

α5β1 = target: T2, α5β1 (Homo sapiens, UniProt P05556+P08648); assay: Cell attachment assay, α5β1; format: cell-based; details: 1 hour at 37° C
T2 construct: Cells HT29, K562, or K562 transfected with αvβ3; endogenous in cells; host or cells: K562
Experimental: as §2

αIIbβ3 = target: T3, αIIbβ3 (Homo sapiens, UniProt P05106+P08514); assay: Solid-phase assay: biotinylated-fibrinogen binding to immobilized αIIbβ3; details: biotinylated-fibrinogen 10 nM, 2 hours at 37° C, 1 mM CaCl2, read-out: IC50 αIIbβ
T3 construct: purchased Calbiochem
Experimental: Assay 1. Fibrinogen Binding to Immobilized αIIbβ3 and αvβ3
as §1, with “The” for “Assay 1. Fibrinogen Binding to Immobilized αIIbβ3 and αvβ3 (Solid-Phase Assays) The”

HMVEC = assay: Cytotoxicity (MTT), HMVEC; format: cell-based; details: 72 hours, 5000 cells/well
Experimental: as §3, §4

αvβ5 = target: T4, αvβ5 (Homo sapiens, UniProt P06756+P18084); assay: Cell attachment assay, αvβ5; format: cell-based; details: 1 hour at 37° C
T4 construct: Cells HT29, K562, or K562 transfected with αvβ3; endogenous in cells; host or cells: HT29
Experimental: as §2

T1 sequence (P06756 31-889 limits assumed): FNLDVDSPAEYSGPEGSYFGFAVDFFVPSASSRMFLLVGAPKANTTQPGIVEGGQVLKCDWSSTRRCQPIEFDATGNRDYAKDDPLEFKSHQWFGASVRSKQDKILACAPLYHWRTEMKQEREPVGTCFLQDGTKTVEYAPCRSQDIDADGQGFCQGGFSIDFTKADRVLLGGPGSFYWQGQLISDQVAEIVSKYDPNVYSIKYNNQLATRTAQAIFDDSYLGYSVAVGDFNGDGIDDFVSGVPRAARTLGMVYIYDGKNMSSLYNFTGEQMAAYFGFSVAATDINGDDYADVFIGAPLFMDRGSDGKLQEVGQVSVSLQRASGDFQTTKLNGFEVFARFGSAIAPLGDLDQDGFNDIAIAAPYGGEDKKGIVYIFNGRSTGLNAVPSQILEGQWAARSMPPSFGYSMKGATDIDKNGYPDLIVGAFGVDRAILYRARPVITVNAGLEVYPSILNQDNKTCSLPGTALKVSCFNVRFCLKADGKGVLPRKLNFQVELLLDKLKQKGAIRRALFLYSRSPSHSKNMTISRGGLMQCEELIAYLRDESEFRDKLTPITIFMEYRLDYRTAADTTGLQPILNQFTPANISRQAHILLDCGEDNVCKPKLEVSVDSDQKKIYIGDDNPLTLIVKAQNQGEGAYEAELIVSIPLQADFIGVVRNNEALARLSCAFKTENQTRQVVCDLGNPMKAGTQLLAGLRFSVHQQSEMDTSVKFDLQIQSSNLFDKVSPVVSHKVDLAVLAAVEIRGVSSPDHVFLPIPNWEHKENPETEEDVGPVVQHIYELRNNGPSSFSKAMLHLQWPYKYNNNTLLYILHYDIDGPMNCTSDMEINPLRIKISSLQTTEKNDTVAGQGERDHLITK
T1 sequence (P06756 891-1048 limits assumed): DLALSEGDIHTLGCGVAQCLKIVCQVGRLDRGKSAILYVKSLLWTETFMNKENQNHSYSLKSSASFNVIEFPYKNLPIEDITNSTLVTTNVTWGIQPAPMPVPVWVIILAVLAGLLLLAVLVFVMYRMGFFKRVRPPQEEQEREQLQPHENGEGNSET
T1 sequence (P05106 27-788): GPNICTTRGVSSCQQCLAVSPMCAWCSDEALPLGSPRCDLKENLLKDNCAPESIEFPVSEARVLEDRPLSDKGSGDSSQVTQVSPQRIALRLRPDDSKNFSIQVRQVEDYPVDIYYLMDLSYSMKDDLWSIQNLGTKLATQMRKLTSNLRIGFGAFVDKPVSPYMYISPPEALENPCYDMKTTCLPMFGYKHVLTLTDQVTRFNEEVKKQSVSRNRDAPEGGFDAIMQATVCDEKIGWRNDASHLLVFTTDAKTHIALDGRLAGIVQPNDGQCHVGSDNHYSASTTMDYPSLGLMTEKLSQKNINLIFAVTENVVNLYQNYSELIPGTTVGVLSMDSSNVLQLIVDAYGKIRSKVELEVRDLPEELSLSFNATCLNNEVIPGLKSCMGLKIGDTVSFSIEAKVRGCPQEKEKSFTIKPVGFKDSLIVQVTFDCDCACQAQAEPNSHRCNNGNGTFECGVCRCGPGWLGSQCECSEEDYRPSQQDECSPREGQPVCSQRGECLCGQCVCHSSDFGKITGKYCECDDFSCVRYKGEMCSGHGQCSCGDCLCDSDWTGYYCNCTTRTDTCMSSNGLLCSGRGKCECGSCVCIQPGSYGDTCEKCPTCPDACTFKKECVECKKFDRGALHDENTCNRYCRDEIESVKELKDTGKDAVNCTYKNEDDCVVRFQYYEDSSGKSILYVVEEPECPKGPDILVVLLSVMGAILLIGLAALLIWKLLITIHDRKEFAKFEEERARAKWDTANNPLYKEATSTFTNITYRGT
T4 sequence (P06756 31-889 limits assumed): as the sequence (P06756 31-889 limits assumed) above
T4 sequence (P06756 891-1048 limits assumed): as the sequence (P06756 891-1048 limits assumed) above
T4 sequence (P18084 24-799): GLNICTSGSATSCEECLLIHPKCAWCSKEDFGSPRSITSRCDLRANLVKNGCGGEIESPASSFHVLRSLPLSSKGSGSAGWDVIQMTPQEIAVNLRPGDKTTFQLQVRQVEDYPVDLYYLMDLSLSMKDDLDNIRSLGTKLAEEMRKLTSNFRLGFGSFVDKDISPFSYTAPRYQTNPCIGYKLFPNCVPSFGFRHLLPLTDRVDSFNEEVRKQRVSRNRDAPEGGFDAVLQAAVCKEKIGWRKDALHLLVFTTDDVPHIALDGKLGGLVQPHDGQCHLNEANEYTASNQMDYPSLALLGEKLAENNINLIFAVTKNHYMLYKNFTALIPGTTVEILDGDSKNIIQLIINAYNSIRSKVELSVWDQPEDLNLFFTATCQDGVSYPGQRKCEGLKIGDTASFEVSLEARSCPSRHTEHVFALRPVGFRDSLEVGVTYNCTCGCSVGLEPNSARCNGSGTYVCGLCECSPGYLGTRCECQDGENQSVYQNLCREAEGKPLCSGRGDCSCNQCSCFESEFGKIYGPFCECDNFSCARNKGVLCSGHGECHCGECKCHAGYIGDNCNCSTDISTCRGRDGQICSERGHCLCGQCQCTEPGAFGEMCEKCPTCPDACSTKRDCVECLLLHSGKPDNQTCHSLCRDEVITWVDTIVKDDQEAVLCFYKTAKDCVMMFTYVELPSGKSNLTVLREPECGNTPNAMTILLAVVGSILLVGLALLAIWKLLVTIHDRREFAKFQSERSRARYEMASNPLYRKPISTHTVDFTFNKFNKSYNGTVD
T3 sequence (P08514 32-887 limits assumed): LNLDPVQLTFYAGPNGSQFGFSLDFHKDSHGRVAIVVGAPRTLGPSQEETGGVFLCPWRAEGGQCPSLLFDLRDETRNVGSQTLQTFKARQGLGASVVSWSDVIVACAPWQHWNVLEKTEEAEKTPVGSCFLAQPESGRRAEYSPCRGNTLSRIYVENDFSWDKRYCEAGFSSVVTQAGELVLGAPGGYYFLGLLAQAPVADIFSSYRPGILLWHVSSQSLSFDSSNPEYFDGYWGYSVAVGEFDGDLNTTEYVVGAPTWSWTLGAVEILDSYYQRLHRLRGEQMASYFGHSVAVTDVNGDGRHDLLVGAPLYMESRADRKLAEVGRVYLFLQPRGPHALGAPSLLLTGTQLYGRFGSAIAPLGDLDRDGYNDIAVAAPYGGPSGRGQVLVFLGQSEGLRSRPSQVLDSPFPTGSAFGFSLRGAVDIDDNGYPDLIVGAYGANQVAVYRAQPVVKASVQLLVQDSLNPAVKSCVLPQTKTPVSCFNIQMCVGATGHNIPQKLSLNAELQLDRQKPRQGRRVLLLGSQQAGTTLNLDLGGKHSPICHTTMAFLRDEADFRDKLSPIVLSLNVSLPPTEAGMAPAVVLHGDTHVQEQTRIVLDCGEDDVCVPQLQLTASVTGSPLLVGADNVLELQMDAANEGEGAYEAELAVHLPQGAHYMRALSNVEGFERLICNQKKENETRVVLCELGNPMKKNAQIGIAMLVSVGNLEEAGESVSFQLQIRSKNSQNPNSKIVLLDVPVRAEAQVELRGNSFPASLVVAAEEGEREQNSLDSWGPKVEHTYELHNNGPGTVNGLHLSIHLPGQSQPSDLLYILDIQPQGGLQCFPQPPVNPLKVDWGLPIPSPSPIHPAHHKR
T3 sequence (P08514 891-1039 limits assumed): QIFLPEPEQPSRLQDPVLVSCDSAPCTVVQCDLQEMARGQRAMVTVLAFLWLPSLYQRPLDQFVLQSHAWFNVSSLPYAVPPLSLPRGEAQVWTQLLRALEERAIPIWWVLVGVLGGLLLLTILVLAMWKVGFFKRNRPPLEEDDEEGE
T3 sequence (P05106 27-788): as the sequence (P05106 27-788) above

| Structure (SMILES) | pIC50 (αvβ3 [1]) | pIC50 (αvβ3 [2]) | pIC50 (HT29) | pIC50 (B16F10) | pIC50 (α5β1) | pIC50 (αIIbβ3) | pIC50 (HMVEC) | pIC50 (αvβ5) | Selectivity (αvβ3 [1]) |
| --- | --- | --- | --- | --- | --- | --- | --- | --- | --- |
| Cc1cc(C)c(S(=O)(=O)NC(CNC(=O)c2ccc(-c3cccc(NC(=N)N)c3)s2)C(N)=O)c(C)c1 (stereo not shown) [AB-4, 5-(3-Guanidino-phenyl)-thiophene-2-carboxylic acid [2-carbamoyl-2-(2,4,6-trimethyl-benzenesulfonylamino)-ethyl]-amide hydrochloride salt] | 7.44 | – | – | – | – | – | – | – | – |
| Cc1cc(C)c(S(=O)(=O)NC(CNC(=O)c2ccc(-c3cccc(NC(=N)N)c3)s2)C(N)=O)c(C)c1 (stereo not shown) [AC-1, 5-(3-Guanidino-phenyl)-thiophene-2-carboxylic acid [2-carbamoyl-2-(2,4,6-trimethyl-benzenesulfonylamino)-ethyl]-amide hydrochloride salt] | 6.54 | – | – | – | – | – | – | – | – |
| Cc1cc(C)c(S(=O)(=O)NC(CNC(=O)c2ccc(-c3cccc(NC(=N)N)c3)s2)C(=O)Nc2nccs2)c(C)c1 (stereo not shown) [Compound X-5, 5-(3-Guanidino-phenyl)-thiophene-2-carboxylic acid [2-(thiazol-2-ylcarbamoyl)-2-(2,4,6-trimethyl-benzenesulfonylamino)-ethyl]-amide hydrochloride salt] | 6.44 | – | – | – | – | – | – | – | – |
| Cc1cc(C)c(S(=O)(=O)N[C@@H](CNC(=O)c2ccc(-c3cccc(NC(=N)N)c3)s2)C(=O)O)c(C)c1 [Compound M-3, 3-{[5-(3-Guanidino-phenyl)-thiophene-2-carbonyl]-amino}-2-(2,4,6-trimethyl-benzenesulfonylamino)-propionic acid (trifluoroacetic acid salt)] | 8.72 | 10.74 | 5.16 | 6.59 | 7.47 | 8.96 | 6.85 | 8.80 | 0.6 |
| Cc1cc(C)c(S(=O)(=O)N[C@@H](CNC(=O)c2ccc(/C=C/CNC(=N)N)s2)C(=O)O)c(C)c1 [Compound U-2, (S)-3-{[5-(3-Guanidino-(E)-propenyl)-thiophene-2-carbonyl]-amino}-2-(2,4,6-trimethyl-benzenesulfonylamino)-propionic acid trifluoroacetic acid salts] | 9.30 | 8.82 | 5.32 | 6.74 | 8.21 | 9.27 | 7.59 | 8.22 | 1 |
| Cc1cc(C)c(S(=O)(=O)N[C@@H](CNC(=O)c2ccc(-c3cccc(CNC(=N)N)c3)s2)C(=O)O)c(C)c1 [Compound F-2, 3-{[5-(3-Guanidinomethyl-phenyl)-thiophene-2-carbonyl]-amino}-2-(2,4,6-trimethyl-benzenesulfonylamino)-propionic acid trifluoroacetic acid salt] | 8.09 | 8.54 | 5.34 | 6.72 | 7.15 | 9.60 | 7.51 | 7.96 | 0.03 |
| N=C(N)NCc1cccc(-c2ccc(C(=O)NC[C@H](NS(=O)(=O)c3ccccc3)C(=O)O)s2)c1 [Compound E-2, 2-Benzenesulfonylamino-3-{[5-(3-guanidinomethyl-phenyl)-thiophene-2-carbonyl]-amino}-propionic acid trifluoroacetic acid salt] | 8.57 | 9.74 | < 5.00 | 5.89 | 6.19 | 9.26 | 6.70 | 7.14 | 0.2 |
| CCOC(=O)[C@H](CNC(=O)c1ccc(-c2cccc(NC(=N)N)c2)s1)NS(=O)(=O)c1c(C)cc(C)cc1C [AB-2, 5-(3-Guanidino-phenyl)-thiophene-2-carboxylic acid [2-carbamoyl-2-(2,4,6-trimethyl-benzenesulfonylamino)-ethyl]-carboxylic acid ethyl ester] | 6.98 | – | – | – | – | – | – | – | – |
| N=C(N)Nc1cccc(-c2ccc(C(=O)NC[C@H](NS(=O)(=O)c3ccccc3)C(=O)O)s2)c1 [Compound K-3, 2-Benzenesulfonylamino-3-{[5-(3-guanidino-phenyl)-thiophene-2-carbonyl]-amino}-propionic acid (trifluoroacetic acid salt)] | 8.82 | 8.55 | 5.29 | 6.49 | 7.10 | 8.85 | 7.35 | 8.19 | 1 |
